In patent US4151278A, “Process for the preparation of an extract of Teucrium marum used in particular in therapy” (Institut de Recherches Chimiques et Biologiques Appliquees, priority 1976, dated 1979):

Test system: spontaneous respiration in male guinea pigs
Assay: Analeptic respiratory activity after morphine depression
Type: in vivo
Details: 20 mg/kg intravenously; reference; before morphine 58, 20 minutes after morphine 29
Protocol: The spontaneous respiration in male guinea pigs, weighing 400-600 g, which have been anaesthetized, is recorded by means of a tracheal probe connected to an electronic recorder.
In a first stage, the respiration is depressed by an intravenous injection of 10 mg/kg of morphine. In a second stage, 20 minutes after the morphine, the product to be studied is injected intravenously.
The respiratory rhythm is recorded before the injection of morphine, and before and 1 minute after the injection of the product to be studied.

SMILES: Cn1c(=O)c2[nH]cnc2n(C)c1=O [theophylline]
- respiratory rhythm 1 minute after administration of the product: 47 pulsations/minute
